# Literature values, collected in US10369157B1 (priority 2018, dated 2019).
# Tests used:
# [1] = tested on: adrenergic alpha-2 receptors
# rats = settings: rat, in vivo
structure (smiles),measurement,setting,value
"Clc1cccc(Cl)c1NC1=NCCN1 [Clonidine, N-(2,6-dichlorophenyl)-4,5-dihydro-1H-imidazol-2-amine]",Effect on pulse rate in treated patients,patients; most patients,decrease in pulse rate
same,Absorption by the human body,in vivo,well absorbed
"Cc1cccc([C@H](C)c2cnc[nH]2)c1C [Dexmedotomidine, 5-[(1S)-1-(2,3-dimethylphenyl)ethyl]-1H-imidazole]",Affinity towards adrenergic alpha-2 receptors compared with Clonidine,[1],increased affinity
"CNC1(c2ccccc2Cl)CCCCC1=O (centres unmarked) [Ketamine, 2-(2-chlorophenyl)-2-(methylamino)cyclohexan-1-one]",Clinical effects observed on patients following administration,"patients; human, in vivo","increased blood pressure, increased muscle tone (may resemble catatonia), opening of the eyes (usually accompanied by nystagmus), and increased myocardial oxygen consumption"
same,Dose recovered through excreted feces,studies in humans,approximately 3%
same,Dose recovered through urine,studies in humans,approximately 91%
"Cc1ncc2n1-c1ccc(Cl)cc1C(c1ccccc1F)=NC2 [Midazolam, 8-chloro-6-(2-fluorophenyl)-1-methyl-4H-imidazo[1,5-a][1,4]benzodiazepine]",Passage through the placenta into fetal circulation,humans,slowly pass through the placenta
same,Presence in human milk,humans,small amounts
OCc1ncc2n1-c1ccc(Cl)cc1C(c1ccccc1F)=NC2 [alpha-hydroxymidazolam],Contribution to the effects of the sleep inducing agent,patients; intravenous administration,approximately 10%
same,Elimination half-life,metabolite,< 1 h
same,Plasma concentrations relative to the parent compound,metabolite of the sleep inducing agent,approximately 12%
CN1CC[C@]23c4c5ccc(O)c4O[C@H]2[C@@H](O)C=C[C@H]3[C@H]1C5 [morphine],Minimum ratio of DL50 to DE50,rats,69.5
Oc1cc(Cl)c(NC2=NCCN2)c(Cl)c1 [p-hydroxyclonidine],Pharmacological activity of the major metabolite,"patients; human, in vivo",pharmacologically inactive
CCOC(=O)C1(c2ccccc2)CCN(C)CC1 [pethidine],Minimum ratio of DL50 to DE50,rats,4.6
